{"source": "patent US8685726B2", "about": "“Small molecules supporting pluripotent cell growth and methods thereof” (Viacyte, Inc., priority 2009, dated 2014)", "key": {"[1]": {"test_system": "hES cells (e.g., BGO2 cells)", "experiment": "Low-density colony forming / colony counting assay (AP+ colonies)", "assay_type": "cell-based, human", "method": "FIG. 2. Low density plating assay of hES cells (e.g., BGO2 cells). 10000 cells/well were plated in 6-well trays in StemPro® hESC SFM (Life Technologies) medium and stained with alkaline phosphatase (AP+) after 7 days. Y (Y27632), ACh (acetylcholine), NMDA (N-methyl-D-aspartic acid), NE ((−)-Norepinephrine), NE.Bit ((±)-Norepinephrine (+)-bitartrate). Compounds were added at 10 or 50 μM as indicated.\nFIG. 3. Low density plating assay of hES cells. (A) 200-10000 cells/well were plated in […] trays in StemPro® hESC SFM medium, or StemPro® hESC SFM +50 μM NE, or +50 μM ACh, and stained with alkaline phosphatase (AP+) after 8 days. […] ACh (acetylcholine), NE ((±)-Norepinephrine (+)-bitartrate). […]\nAbout 10^4 hES cells/well were plated in 6-well trays in StemPro® hESC SFM, in the presence of different compounds and cultured for about 7 days. The cultures were then fixed, stained for alkaline phosphatase activity and colonies were counted (FIG. 2). […] The (±)-Norepinephrine (+)-bitartrate salt was used for all subsequent experiments involving norepinephrine (NE) unless specifically described otherwise.\nA similar colony counting experiment was performed using a range of cell densities (FIG. 3). […] See Robins and Schulz 2009, supra. […]"}, "CyT49 cells": {"test_system": "CyT49 cells", "experiment": "Karyotyping (G-banding) of replated suspension cultures after 10 passages", "assay_type": "cell-based, human", "details": "after 10 passages in suspension, G-banded", "method": "FIG. 11. Suspension hES cell cultured with NE, […] remain undifferentiated. CyT49 cells were grown as suspension aggregates in the presence of NE, […] for 16 passages without differentiating morphologically. After p10, some cells were re-plated to adherent culture and examined by karyotyping and immunofluorescent staining for OCT4 and Tra-1-61. All cultures remained undifferentiated and expressed these pluripotency markers uniformly. (SP) StemPro® SFM HIA, NE (+NE at 50 μM), ACh (+ACh at 50 μM), NE/ACh (+NE/ACh at 50 μM). Karyotype data is shown to the right. […] Cultures containing ACh were aneuploid.\nTo examine these possibilities, these cultures were serially passaged to p1 (FIG. 10E). Because Y27632 treated aggregates were of a larger size, they required passaging after only 3 days, and only generated about 1.2×10^7 cells during that period. In contrast, the cultures containing NE, ACh or NE/ACh were cultured for 6 days and generated greater than 2×10^7 cells per well. Suspension cultures containing NE, ACh or NE/ACh were maintained for 12 serial passages, in parallel with a HAIF control culture, and all conditions maintained an undifferentiated morphology throughout. Suspension aggregates were dissociated to single cells after 10 passages and replated to adherent culture for analyses. […] Replated cultures were also G-banded to determine their karyotype."}}, "note": "Entries after “also recorded” stand apart in the source; their conditions may differ.", "data": [{"smiles": "NCC(O)c1ccc(O)c(O)c1", "note": "(racemic) [NE, (±)-Norepinephrine (+)-bitartrate]", "values": [{"measurement": "colonies detected compared to StemPro hESC SFM medium alone", "setting": "[1]; 50 μM, 200-10000 cells/well, 8 days", "result": "More than four times as many colonies"}, {"measurement": "fewest plated cells per well at which colonies were observed", "setting": "[1]; 50 μM, 8 days", "result": 1000, "unit": "plated cells"}, {"measurement": "support of colony formation at low density", "setting": "[1]; 10^4 cells/well, StemPro hESC SFM, 7 days, compounds at 10 or 50 μM", "result": "supported elevated colony formation"}]}, {"smiles": "CC(=O)OCC[N+](C)(C)C", "note": "[ACh, acetylcholine]", "values": [{"measurement": "karyotype", "setting": "CyT49 cells", "result": "aneuploid or abnormal; also recorded: aneuploid"}, {"measurement": "fewest plated cells per well at which colonies were observed", "setting": "[1]; 50 μM, 8 days", "result": 500, "unit": "plated cells"}]}]}
